Assay results taken from paper PMC3116320 (Indian Journal of Pharmaceutical Sciences, 2010).

How the values were obtained:
Test in all cases: Sulforhodamine-B
Assay type in all cases: cell-based
[1] = test system: Colo205 colon cancer cell line; conditions: Homo sapiens, COLO 205, read-out: IC50 anticancer evaluation Colo205
[2] = test system: HOP62 lung cancer cell line; conditions: Homo sapiens, HOP-62, read-out: IC50 anticancer evaluation Hop62
[3] = test system: HT29 colon cancer cell line; conditions: Homo sapiens, HT-29, read-out: IC50 anticancer evaluation HT29
[4] = test system: MCF7 breast cancer cell line; conditions: Homo sapiens, MCF7, read-out: IC50 anticancer evaluation MCF
[5] = test system: MIA-PA-CA-2 pancreatic cancer cell line; conditions: Homo sapiens, MIA PaCa-2, read-out: IC50 anticancer evaluation Miapaca-2

Measured: IC50

COc1cccc2c1C(=O)c1c(O)c3c(c(O)c1C2=O)C[C@@](O)(C(=O)CO)C[C@@H]3O[C@H]1C[C@H](N)[C@H](O)[C@H](C)O1 [Adriamycin]
< 15 µM: all assays above
